According to US6503542B2, “Herbal compositions for treating immunological disorders” (GloboAsia, L.L.C., priority 2000, dated 2003):

Key:
Assay type in all cases: in vivo, BALB/c mice
Conditions in all cases: FIG. 10; comparison with conventional asthma drugs
IL-4 = test: ELISA determination of IL-4 in fluid of pulmonary alveoli of Der p 5 sensitized mice
Text: (§1) The effects of the STA-36 and STA-4 herbal composition as well as individual herbs on suppression of allergen-induced immunoglobulin G (IgG), immunoglobulin E (IgE), interleukin-4 (IL-4), and interferon γ (IFN-γ) were investigated using BALB/c mice sensitized with D.P. (Dermatophagoides pteronyssimus) allergen “Der p 5”. Dermatophagoides pteronyssimus is the house dust mite which acts as an antigen and produces an allergic asthmatic reaction in atopic person.
(§2) Female BALB/c mice aged between 4 and 6 weeks and weighed about 20 g were obtained from the National Animal-breeding Center, Republic of China and used in the studies. Mice were age- and sex- matched for each experiment.
(§3) BALB/c mice were initially intraperitoneally sensitized with 10 μg of Dermatophagoides pteronyssimus group 5 (“Der p 5”) allergen and 4 mg of aluminium hydroxide (Wyeth Pharmaceuticals, Punchbowl, Australia). Seven (7) days after the first sensitization, mice, except the placebo control group, were fed with STA-36 and STA-4 herbal compositions until the end of the twenty-first day.
(§4) At the end of the twenty first day, the mice were given a second booster injection of Der p 5. Forty eight (48) hours after the second booster injection, mice were placed in a round plastic container where the mice were further challenged by 0.1% Der p 5 spray.
(§5) Several hours after the challenge, the mouse was anaesthetized using 100 mg/ml phenobarbital. Blood was collected from the tail vein or heart. […]
(§6) One hundred (100) μl of the supernatant from the fluid of pulmonary alveoli were then added to the microwells, together with cytokine standard solution, for overnight reaction at 4° C. […] Plates were read in a microplate autoreader (ELISA reader, Dynex MRX) at 405 nm.
(§7) All of the data contained in the experiments were calculated as “mean±SEM.” Trachea resistance change induced by acetylcholine after converted to PC 100 was measured as μg/kg. […]

IFN-γ = test: ELISA determination of IFN-γ in fluid of pulmonary alveoli of Der p 5 sensitized mice
Text: as §1, §2, §3, §4, §5, §6, §7

IgE = test: ELISA determination of Der p 5-specific IgE in serum of Der p 5 sensitized mice
Text: as §1, §2, §3, §4
(§8) Several hours after the challenge, the mouse was anaesthetized using 100 mg/ml phenobarbital. […]
(§9) The amount of Der p 5-specific IgG and IgE were determined by Enzyme Linked Immunosorbent Assay (ELISA). […]
(§10) Avidin-alkaline phosphatase (1:1000) (Strptavidin-AP, PharMinge 13043E) was then added and incubated for 1 hour at 25° C., followed by six (6) washes. […] Plates were read in a microplate autoreader (ELISA reader, Dynex MRX) at 405 nm. Readings were referenced to commercial isotypes standards which were mouse anti-TNP mAb, IgG1 (107.3), IgG2a (G155-178), and IgE (IgE-3).
as §7

IgG2a = test: ELISA determination of Der p 5-specific IgG (IgG2a) in serum of Der p 5 sensitized mice
Text: as §1, §2, §3, §4, §8, §9, §10, §7

Row | SMILES | effect on IL-4 vs control (IL-4) | effect on IFN-γ vs control (IFN-γ) | effect on IgE vs control (IgE) | effect on IgG (IgG2a) vs control (IgG2a)
1 | Cn1c(=O)c2[nH]cnc2n(C)c1=O.Cn1c(=O)c2[nH]cnc2n(C)c1=O.NCCN [aminophline] | only STA-4 demonstrated significant decreased in IgE and significant increase in IgG, IL-4 | only STA-4 demonstrated significant decreased in IgE and significant increase in IgG, IL-4, and IFN-γ | only STA-4 demonstrated significant decreased in IgE | only STA-4 demonstrated significant decreased in IgE and significant increase in IgG
2 | C[C@]12C=CC(=O)C=C1CC[C@@H]1[C@@H]2[C@@H](O)C[C@@]2(C)[C@H]1CC[C@]2(O)C(=O)CO [prednisolone] | only STA-4 demonstrated significant decreased in IgE and significant increase in IgG, IL-4 | only STA-4 demonstrated significant decreased in IgE and significant increase in IgG, IL-4, and IFN-γ | only STA-4 demonstrated significant decreased in IgE | only STA-4 demonstrated significant decreased in IgE and significant increase in IgG
3 | CN1CCC(=C2c3ccccc3CC(=O)c3sccc32)CC1 [ketotifen] | only STA-4 demonstrated significant decreased in IgE and significant increase in IgG, IL-4 | only STA-4 demonstrated significant decreased in IgE and significant increase in IgG, IL-4, and IFN-γ | only STA-4 demonstrated significant decreased in IgE | only STA-4 demonstrated significant decreased in IgE and significant increase in IgG
